The record followed here is patent US12365674B2, “Inhibitors of histone deacetylase useful for the treatment or prevention of HIV infection” (Merck Sharp & Dohme LLC, priority 2019, dated 2025).

Bounds are passed on as bounds.

This experiment addresses T1, human HDAC8 (Homo sapiens, UniProt Q9BY41).
T1 construct: purchased Enzo Life Sciences BML-SE145-0100
T1 sequence (Q9BY41 1-377): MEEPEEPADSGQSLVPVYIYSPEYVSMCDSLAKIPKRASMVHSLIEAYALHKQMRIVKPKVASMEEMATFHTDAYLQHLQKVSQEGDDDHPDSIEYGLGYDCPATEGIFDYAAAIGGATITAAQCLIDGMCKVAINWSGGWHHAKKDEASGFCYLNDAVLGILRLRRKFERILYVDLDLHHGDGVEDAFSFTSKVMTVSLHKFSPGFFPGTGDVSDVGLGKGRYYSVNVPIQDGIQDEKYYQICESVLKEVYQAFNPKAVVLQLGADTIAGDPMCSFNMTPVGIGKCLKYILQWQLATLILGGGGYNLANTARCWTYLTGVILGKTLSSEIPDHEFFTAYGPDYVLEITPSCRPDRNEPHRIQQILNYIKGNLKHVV
Description: Human HDAC enzyme inhibitor Fluor-de-Lys assay, HDAC8. The class given is biochemical. The settings on record: 1.3 nM enzyme, 200 μM substrate BML-KI178, 3 h pre-incubation, 60 min reaction; read-out: HDAC8_IC50. An excerpt:
Recombinant human HDAC8 (catalog number BML-SE145-0100) and HDAC10 (catalog number BML-SE559-0050) enzymes, HDAC substrates BML-KI104 and BML-KI178, and HDAC developer solutions BML-KI105 and BML-KI176 were purchased from Enzo Life Sciences (Farmingdale, NY). Recombinant human HDAC5 and HDAC11 were purchased from BPS Bioscience (San Diego, CA)(catalog numbers 50045 and 50021). Substrate Boc-Lys(TFA)-AMC was obtained from Bachem (Bupendorf, Switzerland) (catalog number 1-1985). HDAC inhibitor suberoylanilide hydroxamic acid (SAHA) was obtained from Indofine (Hillsborough Township, NJ) and trichostatin A (TSA) was obtained from Sigma-Aldrich (St. Louis, MO). […] HEPES pH 8.0 was obtained from Boston BioProducts (Ashland, MA), Tween-20 from Fisher Scientific (Hampton, NH)(catalog number BP337), TCEP from Calbiochem and 7.5% bovine serum albumin (BSA) from Life Technologies (Carlsbad, CA) (catalog number 15260037). 384-well, black assay plates were obtained from Corning (Corning, NY) (catalog number 3575).
The histone deacetylase activities of HDAC1, HDAC2, HDAC3, HDAC6, and HDAC8 were measured in modified Fluor-de-Lys assays in 384-well format. In this assay, HDAC enzymes are initially incubated with an ε-acetyl (or -trifluoroacetyl)-L-lysine-containing substrate with a C-terminal amide having aminomethylcoumarin as the amine component. HDACs cleave the ε-acetyl group, rendering the resulting product susceptible to AMC cleavage by trypsin. The released AMC is then detected by its fluorescence.
The HDAC 1, 2 assays employed buffer A, which contained 20 mM HEPES, pH 8.0, 1 mM MgCl2, 137 mM NaCl, 2.7 mM KCl, 0.05% BSA. The HDAC3/SMRT assay employed buffer B, consisting of 20 mM HEPES, pH 8.0, 1 mM MgCl2, 50 mM NaCl, 2.7 mM KCl, 0.05% BSA, 0.005% Tween 20, and 10 μM IP4. The HDAC6 assay employed buffer C, consisting of 20 mM HEPES, pH 8.0, 1 mM MgCl2, 137 mM NaCl, 2.7 mM KCl, 0.5 mM TCEP (Calbiochem) and 0.05% BSA. The HDAC8 assay employed buffer D, consisting of 20 mM HEPES, pH 8.0, 1 mM MgCl2, 100 mM NaCl, 20 mM KCl, 0.1% n-octyl-β-D-glucoside (Anatrace, Maumee, OH) and 0.05% BSA. All steps were performed at room temperature (23° C.). The assay was performed by pre-incubating serial dilutions of test compounds with the target HDAC prior to initiation with substrate. Each compound was titrated in a 10-point dose response, using a 1:3 fold dilution scheme, with 0.15 ul of solution added by ECHO555 to the plate, followed by the addition of 20 μl of the appropriate HDAC isoform diluted in appropriate assay buffer. […] Final conditions used for each assay were: 1. HDAC 1, 0.3 nM total enzyme, 20 μM substrate BML-K1104; 2. HDAC 2, 1.5 nM total enzyme, 40 μM substrate BML-K1104; 3. HDAC 3/SMRT, 0.3 nM total enzyme, 20 μM substrate BML-K1104; 4. HDAC 6, 1.3 nM total enzyme, 2.5 μM substrate BML-K1104; 5. HDAC 8, 1.3 nM total enzyme, 200 μM substrate BML-K1178; the final high dose of test compound was 30 μM. For potent compounds, 900 nM was used as the final high dose. The reactions were stopped and developed by addition of 30 ul of HDAC developer solution containing a saturating level of HDAC inhibitor as follows: 1.

As for `N[C@@H](COCCCC(=O)c1ccon1)c1ncc(-c2ccccc2F)[nH]1` [Compound 2, (R)-4-(2-amino-2-(5-(2-fluorophenyl)-1H-imidazol-2-yl)ethoxy)-1-(isoxazol-3-yl)butan-1-one], the IC50 is above 900 nM.
The same measure for `CCC(=O)CCCOC[C@H](NC(=O)c1cncs1)c1ncc(-c2cc3ccccc3nc2OC)[nH]1` [Compound 5, N-{(1R)-1-[5-(2-methoxyquinolin-3-yl)-1H-imidazol-2-yl]-2-[(4-oxohexyl)oxy]ethyl}-1,3-thiazole-5-carboxamide]: 2720 nM; for `CCC(=O)CCCOC[C@H](NC(=O)C12CCN(CC1)CC2)c1ncc(-c2cc3ccccc3nc2OC)[nH]1` [Compound 6, N-{(1R)-1-[5-(2-methoxyquinolin-3-yl)-1H-imidazol-2-yl]-2-[(4-oxohexyl)oxy]ethyl}-1-azabicyclo[2.2.2]octane-4-carboxamide]: above 45000 nM.
The same measure for `CCC(=O)CCCOC[C@H](NC(=O)[C@H]1CC12CCN(CC)CC2)c1ncc(-c2cc3ccccc3nc2OC)[nH]1` [Compound 7, (1S)-6-ethyl-N-{(1R)-1-[5-(2-methoxyquinolin-3-yl)-1H-imidazol-2-yl]-2-[(4-oxohexyl)oxy]ethyl}-6-azaspiro[2.5]octane-1-carboxamide]: above 45000 nM; for `CNC(=O)C(=O)CCCOC[C@H](NC(=O)c1cncs1)c1ncc(-c2cc3ccccc3nc2OC)[nH]1` [Compound 8, N-[(1R)-1-[5-(2-methoxyquinolin-3-yl)-1H-imidazol-2-yl]-2-{[5-(methylamino)-4,5-dioxopentyl]oxy}ethyl]-1,3-thiazole-5-carboxamide]: 3860 nM.
Regarding `CNC(=O)C(=O)CCCOC[C@H](NC(=O)C12CCN(CC1)CC2)c1ncc(-c2cc3ccccc3nc2OC)[nH]1` [Compound 9, N-[(1R)-1-[5-(2-methoxyquinolin-3-yl)-1H-imidazol-2-yl]-2-{[5-(methylamino)-4,5-dioxopentyl]oxy}ethyl]-1-azabicyclo[2.2.2]octane-4-carboxamide], the IC50 was determined as 3370 nM.
`COc1nc2ccccc2cc1-c1cnc([C@H](COCCCC(=O)c2ncco2)NC(=O)c2cncs2)[nH]1` [Compound 10, N-{(1R)-1-[5-(2-methoxyquinolin-3-yl)-1H-imidazol-2-yl]-2-[4-(1,3-oxazol-2-yl)-4-oxobutoxy]ethyl}-1,3-thiazole-5-carboxamide]: the IC50 worked out at 1380 nM.
For the compound `COc1nc2ccccc2cc1-c1cnc([C@H](COCCCC(=O)c2ncco2)NC(=O)[C@H]2CC23CCN(C)CC3)[nH]1` [Compound 11, (1S)-N-{(1R)-1-[5-(2-methoxyquinolin-3-yl)-1H-imidazol-2-yl]-2-[4-(1,3-oxazol-2-yl)-4-oxobutoxy]ethyl}-6-methyl-6-azaspiro[2.5]octane-1-carboxamide], the IC50 was determined as 7780 nM.
The same measure for `COc1nc2ccccc2cc1-c1cnc([C@H](COCCCC(=O)c2ncco2)NC(=O)C23CCN(CC2)CC3)[nH]1` [Compound 12, N-{(1R)-1-[5-(2-methoxyquinolin-3-yl)-1H-imidazol-2-yl]-2-[4-(1,3-oxazol-2-yl)-4-oxobutoxy]ethyl}-1-azabicyclo[2.2.2]octane-4-carboxamide]: 5550 nM; for `COc1nc2ccccc2cc1-c1cnc([C@H](COCCCC(=O)c2ncco2)NC(=O)CN(C)C)[nH]1` [Compound 13, N-{(1R)-1-[5-(2-methoxyquinolin-3-yl)-1H-imidazol-2-yl]-2-[4-(1,3-oxazol-2-yl)-4-oxobutoxy]ethyl}-N~2~,N~2~- dimethylglycinamide]: 17000 nM; for `COc1nc2ccccc2cc1-c1cnc([C@H](COCCCC(=O)c2ccon2)NC(=O)CN(C)C)[nH]1` [Compound 14, N-{(1R)-2-(4-isoxazol-3-yl-4-oxobutoxy)-1-[5-(2-methoxyquinolin-3-yl)-1H-imidazol-2-yl]ethyl}-N~2~,N~2~- dimethylglycinamide]: 1760 nM.
The same measure for `CN1CC(C(=O)N[C@@H](COCCCC(=O)c2ccon2)c2ncc(-c3ccccc3F)[nH]2)C1` [Compound 15, N-[(1R)-1-[5-(2-fluorophenyl)-1H-imidazol-2-yl]-2-(4-isoxazol-3-yl-4-oxobutoxy)ethyl]-1-methylazetidine-3-carboxamide]: above 900 nM.
On to `CN1CC(C(=O)N[C@@H](COCCCC(=O)c2ccon2)c2[nH]c(-c3ccc(F)cc3)nc2Cl)C1` [Compound 16, N-[(1R)-1-[4-chloro-2-(4-fluorophenyl)-1H-imidazol-5-yl]-2-(4-isoxazol-3-yl-4-oxobutoxy)ethyl]-1-methylazetidine-3-carboxamide], for which the IC50 is above 900 nM.
The value for `CN(C)CC(=O)N[C@@H](COCCCC(=O)c1ccon1)c1[nH]c(-c2ccc(F)cc2)nc1Cl` [Compound 17, N-[(1R)-1-[4-chloro-2-(4-fluorophenyl)-1H-imidazol-5-yl]-2-(4-isoxazol-3-yl-4-oxobutoxy)ethyl]-N~2~,N~2~- dimethylglycinamide] was above 900 nM; that for `CN1CCC2(CC1)C[C@@H]2C(=O)N[C@@H](COCCCC(=O)c1ccon1)c1[nH]c(-c2ccc(F)cc2)nc1Cl` [Compound 18, (1S)-N-[(1R)-1-[4-chloro-2-(4-fluorophenyl)-1H-imidazol-5-yl]-2-(4-isoxazol-3-yl-4-oxobutoxy)ethyl]-6-methyl-6-azaspiro[2.5]octane-1-carboxamide] was above 900 nM; that for `COc1cc2nc(C)ccc2cc1-c1cnc([C@H](COCCCC(=O)c2cc(C)on2)NC(=O)C2CN(C)C2)[nH]1` [Compound 19, N-{(1R)-1-[5-(7-methoxy-2-methylquinolin-6-yl)-1H-imidazol-2-yl]-2-[4-(5-methylisoxazol-3-yl)-4-oxobutoxy]ethyl}-1-methylazetidine-3-carboxamide] was above 900 nM.
The same measure for `COc1cc2nc(C)ccc2cc1-c1cnc([C@H](COCCCC(=O)c2cc(C)on2)NC(=O)[C@H]2CC23CCN(C)CC3)[nH]1` [Compound 20, (1S)-N-{(1R)-1-[5-(7-methoxy-2-methylquinolin-6-yl)-1H-imidazol-2-yl]-2-[4-(5-methylisoxazol-3-yl)-4-oxobutoxy]ethyl}-6-methyl-6-azaspiro[2.5]octane-1-carboxamide]: above 900 nM.
The same measure for `Cc1ccc2cc(-c3cnc([C@H](CSCCCC(=O)c4ncco4)NC(=O)[C@H]4CC45CCN(C)CC5)[nH]3)ccc2n1` [Compound 21, (1S)-6-methyl-N-[(1R)-1-[5-(2-methylquinolin-6-yl)-1H-imidazol-2-yl]-2-{[4-(1,3-oxazol-2-yl)-4-oxobutyl]sulfanyl}ethyl]-6-azaspiro[2.5]octane-1-carboxamide]: 1050 nM.
